Measured values published in patent publication US7977375B2, “Antibiotic and method of production thereof” (Helmholtz-Zentrum Für Infektionsforschung GmbH, priority 2004, dated 2011).
In brackets after ≈: the same amount, converted by molar mass. Read-outs that look alike come from different tables or passages of the source.

How the values were obtained:
[1] = tested on: MRSA 3 (methicillin-resistant S. aureus, clinical isolate); assay: agar diffusion method, inhibition zone; format: cell-based, Staphylococcus aureus
Protocol: (§1) The agar diffusion method employing Mueller-Hinton (MH) agar (Difco Laboratories) was used to determine effectiveness against bacteria and yeasts. Sterile paper disks (Schleicher & Schüell, Germany) were seeded with 10 μl crude extract or with a solution of purified macrolactin (final compound concentration on the disk 50 μg) and then placed on the surface of MH-agar plates that had been seeded beforehand with a suspension of overnight culture of the test microorganisms at a concentration of 10^5 cells/ml.

[2] = tested on: S. aureus # (own collection, methicillin-sensitive control strain); assay: agar diffusion method, inhibition zone; format: cell-based, Staphylococcus aureus
Protocol: as §1

[3] = tested on: MRSA 2 (methicillin-resistant S. aureus, clinical isolate); assay: agar diffusion method, inhibition zone; format: cell-based, Staphylococcus aureus
Protocol: as §1

S. aureus DSMZ 1104 = assay: agar diffusion method, inhibition zone; format: cell-based, Staphylococcus aureus
Protocol: as §1

E. faecalis ATCC 29212 [4] = assay: agar diffusion method, inhibition zone; format: cell-based, Enterococcus faecalis
Protocol: as §1

E. faecalis VRAS E305 [5] = assay: agar diffusion method, inhibition zone; format: cell-based, Enterococcus faecalis
Protocol: as §1

[6] = tested on: L929 mouse fibroblast cells; assay: inhibition of proliferation, CyQUANT cell proliferation test; format: cell-based; settings: 5 days
Protocol: The cytotoxicity of 7-O-malonyl macrolactin A was compared to that of 7-O-succinyl macrolactin A and macrolactin A in vitro with respect to the inhibition of the proliferation of L929 mouse fibroblast cells or the human epithelial cell line HeLa.
For the cell culture, the HeLa cells were cultivated in low-glucose DMEM medium (Gibco), and the L929 cells in high-glucose DMEM medium. Both were supplemented with 10% by volume foetal calf serum (Gibco) at 37° C. in an atmosphere containing 5% CO2. The cells were extracted from stock cultures by means of trypsinization with EDTA (HeLa) or without EDTA (L929), then counted and diluted to 2×10^5 cells/ml. For the tests, microtitre plates (Nunc.) comprising 96 depressions were plated out in serial dilution without or in the presence of the test compounds or methanol. Determination of morphological alterations of the cells was carried out by means of phase contrast microscopy after 1, 2 and 5 days incubation.
After 5 days cultivation, cell counts were determined by the CyQUANT cell proliferation test (Molecular Probes), which is a highly sensitive microtitre plate test based on fluorescence. The test employs the dye CyQUANT, which, by binding to cellular nucleic acids, enhances fluorescence, which can then be measured by fluorescein excitation. The emission of fluorescence by the dye-nucleic acid complex correlated linearly with the cell count. For test purposes, the residue was carefully removed after 5 days incubation, the cells washed with PBS (phosphate buffered saline solution), the buffer removed and the cells frozen at −80° C. For the test, the cells were thawed at ambient temperature and lysated in a buffered solution containing the dye CyQUANT, in accordance with manufacturer's instructions. Fluorescence was measured by means of a fluormetric microtitre-plate reader (Titertex Fluorskan II) (excitation at 480 nm, emission at 520 nm). The […] were used to calculate the percentage of cellular proliferation in medium both alone and in the presence of serial dilutions of methanol and the macrolactin compounds. […] Proliferation was measured by means of the fluorescence-based test CyQUANT for determining viable cell counts. Table 5 illustrates the relative inhibition of proliferation as compared to a control culture comprising fresh medium without the addition of a macrolactin.

E. faecium VRAR E315 [7] = assay: agar diffusion method, inhibition zone; format: cell-based, Enterococcus faecium
Protocol: as §1

B. cepacia SCV 141 [8] = assay: agar diffusion method, inhibition zone; format: cell-based, Burkholderia cepacia; settings: 18 hours at 37° C., per disk 10 μl crude extract, 50 μg macrolactin, 78 μg erythromycin, 10 μg ampicillin; for Inhibition zone: MH agar
Protocol: as §1
The B. cepacia strain used, which is a clinical isolate from a cystic fibrosis patient, forms small colonies (SCV 141).

[9] = tested on: S. aureus # (non-methicillin-resistant reference strain); assay: MIC / MBC in liquid culture; format: cell-based, Staphylococcus aureus; settings: for MIC: Staphylococcus aureus, read-out: MIC (minimal inhibitory concentration)
E. faecalis ATCC 29212 [10] = assay: MIC / MBC in liquid culture; format: cell-based, Enterococcus faecalis; settings: for MIC: Enterococcus faecalis
E. faecalis VRAS E305 [11] = assay: MIC / MBC in liquid culture; format: cell-based, Enterococcus faecalis; settings: for MIC: Enterococcus faecalis
MRSA 2 = assay: MIC / MBC in liquid culture; format: cell-based, Staphylococcus aureus; settings: for MIC: Staphylococcus aureus, read-out: MIC (minimal inhibitory concentration)
B. cepacia WT139 = assay: MIC / MBC in liquid culture; format: cell-based, Burkholderia cepacia
Description: (§2) 7-O-malonyl macrolactin A was not effective against some of the gram-negative bacteria tested by the inventors.

B. cepacia SCV 141 [12] = assay: MIC / MBC in liquid culture; format: cell-based, Burkholderia cepacia
Description: as §2

E. faecium VRAR E315 [13] = assay: MIC / MBC in liquid culture; format: cell-based, Enterococcus faecium; settings: for MIC: Enterococcus faecium
MRSA 3 = assay: MIC / MBC in liquid culture; format: cell-based, Staphylococcus aureus; settings: for MIC: Staphylococcus aureus, read-out: MIC (minimal inhibitory concentration)
[14] = Staphylococcus aureus, MRSA, 18 h, read-out: Inhibition zone

## CC1CCCC=CC=CC(O)CC(O)CC=CC=CC(OC(=O)CCC(=O)O)CC=CC=CC(=O)O1 (stereo not shown) [7-O-succinyl macrolactin A]
[1]; MRSA 3, MH agar, 18 hours at 37° C., per disk 10 μl crude extract, 50 μg macrolactin, 78 μg erythromycin, 30 μg vancomycin, 10 μg ampicillin
  Inhibition zone: 38 mm
[2]; S. aureus # own collection, MH agar, 18 hours at 37° C., per disk 10 μl crude extract, 50 μg macrolactin, 78 μg erythromycin, 30 μg vancomycin, 10 μg ampicillin
  Inhibition zone: 22 mm
[3]; MRSA 2, MH agar, 18 hours at 37° C., per disk 10 μl crude extract, 50 μg macrolactin, 78 μg erythromycin, 30 μg vancomycin, 10 μg ampicillin
  Inhibition zone: 37 mm
S. aureus DSMZ 1104; S. aureus DSMZ 1104, MH agar, 18 hours at 37° C., per disk 10 μl crude extract, 50 μg macrolactin, 78 μg erythromycin, 30 μg vancomycin, 10 μg ampicillin
  Inhibition zone: 18 mm
E. faecalis ATCC 29212 [4]; E. faecalis ATCC 29212, MH agar, 18 hours at 37° C., per disk 10 μl crude extract, 50 μg macrolactin, 78 μg erythromycin, 30 μg vancomycin, 10 μg ampicillin
  Inhibition zone: 12 mm
E. faecalis VRAS E305 [5]; E. faecalis VRAS E305, MH agar, 18 hours at 37° C., per disk 10 μl crude extract, 50 μg macrolactin, 78 μg erythromycin, 30 μg vancomycin, 10 μg ampicillin
  Inhibition zone: no activity
E. faecalis VRAS E305 [5]; E. faecalis VRAS E305, MH agar, 18 hours at 37° C., per disk 10 μl crude extract, 50 μg macrolactin, 78 μg erythromycin, 30 μg vancomycin, 10 μg ampicillin, listed as 7-O-Succinyl-macrolactin A
  Inhibition zone: 0 mm
[6]; compound concentration 3.9 μg/ml
  Inhibition of proliferation: 0%
[6]; compound concentration 15.6 μg/ml
  Inhibition of proliferation: 0%
[6]; compound concentration 31.25 μg/ml
  Inhibition of proliferation: 55%
[6]; compound concentration 56.5 μg/ml
  Inhibition of proliferation: 83%
[6]; compound concentration 125 μg/ml
  Inhibition of proliferation: 87%
E. faecium VRAR E315 [7]; E. faecium VRAR E315, MH agar, 18 hours at 37° C., per disk 10 μl crude extract, 50 μg macrolactin, 78 μg erythromycin, 30 μg vancomycin, 10 μg ampicillin
  Inhibition zone: 20 mm
B. cepacia SCV 141 [8]
  Inhibition zone: no activity
B. cepacia SCV 141 [8]; listed as 7-O-Succinyl-macrolactin A
  Inhibition zone: 0 mm

## CC1(C)S[C@@H]2[C@H](NC(=O)[C@H](N)c3ccccc3)C(=O)N2[C@H]1C(=O)O [Ampicillin, ampicillin]
[9]; S. aureus #
  MIC: 0.06 µg/mL (≈ 0.172 µM)
[1]; Staphylococcus aureus, MRSA 3, MH agar, 18 hours at 37° C., per disk 10 μl crude extract, 50 μg macrolactin, 78 μg erythromycin, 30 μg vancomycin, 10 μg ampicillin
  zone of inhibition at 10 µg/disc: 0 mm
[2]; Staphylococcus aureus, S. aureus # own collection, MH agar, 18 hours at 37° C., per disk 10 μl crude extract, 50 μg macrolactin, 78 μg erythromycin, 30 μg vancomycin, 10 μg ampicillin
  zone of inhibition at 10 µg/disc: 41 mm
[3]; Staphylococcus aureus, MRSA 2, MH agar, 18 hours at 37° C., per disk 10 μl crude extract, 50 μg macrolactin, 78 μg erythromycin, 30 μg vancomycin, 10 μg ampicillin
  zone of inhibition at 10 µg/disc: 0 mm
S. aureus DSMZ 1104; Staphylococcus aureus, DSMZ1104, S. aureus DSMZ 1104, MH agar, 18 hours at 37° C., per disk 10 μl crude extract, 50 μg macrolactin, 78 μg erythromycin, 30 μg vancomycin, 10 μg ampicillin
  zone of inhibition at 10 µg/disc: 30 mm
E. faecalis ATCC 29212 [4]; Enterococcus faecalis, ATCC29212, E. faecalis ATCC 29212, MH agar, 18 hours at 37° C., per disk 10 μl crude extract, 50 μg macrolactin, 78 μg erythromycin, 30 μg vancomycin, 10 μg ampicillin
  zone of inhibition at 10 µg/disc: 32 mm
E. faecalis VRAS E305 [5]; Enterococcus faecalis, VRASE305, E. faecalis VRAS E305, MH agar, 18 hours at 37° C., per disk 10 μl crude extract, 50 μg macrolactin, 78 μg erythromycin, 30 μg vancomycin, 10 μg ampicillin
  zone of inhibition at 10 µg/disc: 35 mm
E. faecalis ATCC 29212 [10]; ATCC29212, E. faecalis ATCC 29212, read-out: MIC (minimal inhibitory concentration)
  MIC: 0.5 µg/mL (≈ 1.43 µM)
E. faecalis VRAS E305 [11]; VRASE305, E. faecalis VRAS E305, read-out: MIC (minimal inhibitory concentration)
  MIC: 0.5 µg/mL (≈ 1.43 µM)
MRSA 2; MRSA 2
  MIC: > 128 µg/mL
B. cepacia WT139; Burkholderia cepacia, read-out: MIC (minimal inhibitory concentration)
  MIC: > 128 µg/mL
B. cepacia SCV 141 [12]; Burkholderia cepacia, SCV141, read-out: MIC (minimal inhibitory concentration)
  MIC: 128 µg/mL (≈ 366 µM)
E. faecium VRAR E315 [13]; VRARE315, E. faecium VRAR E315, read-out: MIC (minimal inhibitory concentration)
  MIC: > 128 µg/mL
MRSA 3; MRSA 3
  MIC: 64 µg/mL (≈ 183 µM)
E. faecium VRAR E315 [7]; Enterococcus faecium, VRARE315, E. faecium VRAR E315, MH agar, 18 hours at 37° C., per disk 10 μl crude extract, 50 μg macrolactin, 78 μg erythromycin, 30 μg vancomycin, 10 μg ampicillin
  zone of inhibition at 10 µg/disc: 0 mm
B. cepacia SCV 141 [8]; Burkholderia cepacia, SCV141, MH agar
  zone of inhibition at 10 µg/disc: 0 mm

## CN[C@H](CC(C)C)C(=O)N[C@H]1C(=O)N[C@@H](CC(N)=O)C(=O)N[C@H]2C(=O)N[C@H]3C(=O)N[C@H](C(=O)N[C@H](C(=O)O)c4cc(O)cc(O)c4-c4cc3ccc4O)[C@H](O)c3ccc(c(Cl)c3)Oc3cc2cc(c3O[C@@H]2O[C@H](CO)[C@@H](O)[C@H](O)[C@H]2O[C@H]2C[C@](C)(N)[C@H](O)[C@H](C)O2)Oc2ccc(cc2Cl)[C@H]1O [Vancomycin, vancomycin]
[9]
  MIC: 0.125 µg/mL (≈ 0.0863 µM)
[1]; [14]
  zone of inhibition at 30 µg/disc: 24 mm
[2]; Staphylococcus aureus, 18 h, read-out: Inhibition zone
  zone of inhibition at 30 µg/disc: 27 mm
[3]; [14]
  zone of inhibition at 30 µg/disc: 24 mm
S. aureus DSMZ 1104; Staphylococcus aureus, DSMZ1104, 18 h, read-out: Inhibition zone
  zone of inhibition at 30 µg/disc: 20 mm
E. faecalis ATCC 29212 [4]; Enterococcus faecalis, ATCC29212, 18 h, read-out: Inhibition zone
  zone of inhibition at 30 µg/disc: 24 mm
E. faecalis VRAS E305 [5]; Enterococcus faecalis, VRASE305, 18 h, read-out: Inhibition zone
  zone of inhibition at 30 µg/disc: 0 mm
E. faecalis ATCC 29212 [10]; ATCC29212, read-out: MIC (minimal inhibitory concentration)
  MIC: 2 µg/mL (≈ 1.38 µM)
E. faecalis VRAS E305 [11]; VRASE305, read-out: MIC (minimal inhibitory concentration)
  MIC: > 128 µg/mL
MRSA 2; MRSA
  MIC: 2 µg/mL (≈ 1.38 µM)
E. faecium VRAR E315 [13]; VRARE315, read-out: MIC (minimal inhibitory concentration)
  MIC: > 128 µg/mL
MRSA 3; MRSA
  MIC: 1 µg/mL (≈ 0.69 µM)
E. faecium VRAR E315 [7]; Enterococcus faecium, VRARE315, 18 h, read-out: Inhibition zone
  zone of inhibition at 30 µg/disc: 0 mm

## Gentamycin
[9]; S. aureus #
  MIC (minimal inhibitory concentration): 0.25 µg/mL
E. faecalis ATCC 29212 [10]; E. faecalis ATCC 29212
  MIC (minimal inhibitory concentration): 32 µg/mL
E. faecalis VRAS E305 [11]; E. faecalis VRAS E305
  MIC (minimal inhibitory concentration): 64 µg/mL
MRSA 2; MRSA 2
  MIC (minimal inhibitory concentration): 128 µg/mL
B. cepacia WT139
  MIC (minimal inhibitory concentration): >128 µg/mL
B. cepacia SCV 141 [12]
  MIC (minimal inhibitory concentration): >128 µg/mL
E. faecium VRAR E315 [13]; E. faecium VRAR E315
  MIC (minimal inhibitory concentration): 64 µg/mL
MRSA 3; MRSA 3
  MIC (minimal inhibitory concentration): 128 µg/mL
